pEC50: −log10 of the molar value. Numbered stars: 1 amine (or outer) side, 2 acyl side, 3 side chain; on linkers, the order of the positions; unused ones are H or OH. Side chains are listed from the residue outwards. Peptide text beside a SMILES is read from it. * marks the point of attachment. C18 diacid = O=C(O)CCCCCCCCCCCCCCCCC(=O)*; C16 diacid = O=C(O)CCCCCCCCCCCCCCC(=O)*; γGlu = O=C(O)[C@H](CCC(=O)[*:2])N[*:1]; AEEA = NCCOCCOCC(=O)O
Key:
glucagon receptor = target: T1, glucagon receptor (Homo sapiens, UniProt P47871); assay: Assay (I) Glucagon activity (cAMP biosensor, FLIPR); format: cell-based
T1 construct: expressed in transfected cells
T1 sequence (P47871 26-477): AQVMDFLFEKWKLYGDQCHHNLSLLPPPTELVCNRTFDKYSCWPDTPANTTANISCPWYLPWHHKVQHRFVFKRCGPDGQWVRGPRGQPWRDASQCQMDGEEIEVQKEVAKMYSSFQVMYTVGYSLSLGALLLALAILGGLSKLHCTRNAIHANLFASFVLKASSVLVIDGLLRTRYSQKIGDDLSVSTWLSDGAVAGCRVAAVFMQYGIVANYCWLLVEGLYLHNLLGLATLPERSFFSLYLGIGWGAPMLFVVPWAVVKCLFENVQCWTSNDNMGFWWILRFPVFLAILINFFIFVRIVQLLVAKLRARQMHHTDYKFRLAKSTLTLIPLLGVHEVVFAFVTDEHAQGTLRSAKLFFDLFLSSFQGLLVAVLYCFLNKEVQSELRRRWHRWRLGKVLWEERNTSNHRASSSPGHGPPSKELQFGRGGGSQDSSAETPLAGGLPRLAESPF

[1] = Assay (X) Chemical stability assessment by RP-UPLC; format: physicochemical; conditions: pH 8.15, 14 days at 37° C. vs 5° C., 333 μM

Row | Compound | pEC50 (glucagon receptor) | Chemical stability [Purity loss/14 days 37 C.] [1] [%]
1 | CC(C)C[C@H](NC(=O)[C@H](Cc1c[nH]c2ccccc12)NC(=O)[C@H](CCCCNC(=O)CC[C@H](NC(=O)CC[C@H](NC(=O)CC[C@H](NC(=O)CC[C@H](NC(=O)CCCCCCCCCCCCCCCCC(=O)O)C(=O)O)C(=O)O)C(=O)O)C(=O)O)NC(=O)[C@@H](NC(=O)[C@H](Cc1ccccc1)NC(=O)[C@H](CC(=O)O)NC(=O)[C@H](CCC(N)=O)NC(=O)[C@H](C)NC(=O)[C@H](CCCNC(=N)N)NC(=O)[C@H](CCCNC(=N)N)NC(=O)[C@@H](NC(=O)[C@H](CC(=O)O)NC(=O)[C@H](CC(C)C)NC(=O)[C@H](Cc1ccc(O)cc1)NC(=O)[C@H](CCCCN)NC(=O)[C@H](CO)NC(=O)[C@H](Cc1ccc(O)cc1)NC(=O)[C@H](CC(=O)O)NC(=O)[C@H](CO)NC(=O)[C@@H](NC(=O)[C@H](Cc1ccccc1)NC(=O)[C@@H](NC(=O)CNC(=O)[C@H](CCC(N)=O)NC(=O)[C@H](CO)NC(=O)[C@@H](N)Cc1c[nH]cn1)[C@@H](C)O)[C@@H](C)O)C(C)C)C(C)C)C(=O)N[C@@H](CC(C)C)C(=O)N[C@@H](CO)C(=O)N[C@H](C(=O)O)[C@@H](C)O [Example 78, N^ε24-[(4S)-4-carboxy-4-[[(4S)-4-carboxy-4-[[(4S)-4-carboxy-4-[[(4S)-4-carboxy-4-(17-carboxyheptadecanoylamino)butanoyl]amino]butanoyl]amino]butanoyl]amino]butanoyl]-[Val16,Lys24,Leu27,Ser28]-Glucagon] | 9.87 | 4.3
2 | CC(C)C[C@H](NC(=O)[C@H](Cc1ccc(O)cc1)NC(=O)[C@H](CCCCN)NC(=O)[C@H](CO)NC(=O)[C@H](Cc1ccc(O)cc1)NC(=O)[C@H](CC(=O)O)NC(=O)[C@H](CO)NC(=O)[C@@H](NC(=O)[C@H](Cc1ccccc1)NC(=O)[C@@H](NC(=O)CNC(=O)[C@H](CCC(N)=O)NC(=O)[C@H](CO)NC(=O)[C@@H](N)Cc1c[nH]cn1)[C@@H](C)O)[C@@H](C)O)C(=O)N[C@@H](CC(=O)O)C(=O)N[C@@H](CCC(=O)O)C(=O)N[C@@H](CCCNC(=N)N)C(=O)N[C@@H](CCCNC(=N)N)C(=O)N[C@@H](C)C(=O)N[C@@H](CCC(N)=O)C(=O)N[C@@H](CC(=O)O)C(=O)N[C@@H](Cc1ccccc1)C(=O)N[C@H](C(=O)N[C@@H](CCCCNC(=O)CC[C@H](NC(=O)CC[C@H](NC(=O)COCCOCCNC(=O)COCCOCCNC(=O)CC[C@H](NC(=O)CCCCCCCCCCCCCCCCC(=O)O)C(=O)O)C(=O)O)C(=O)O)C(=O)N[C@@H](Cc1c[nH]c2ccccc12)C(=O)N[C@@H](CC(C)C)C(=O)N[C@@H](CC(C)C)C(=O)N[C@@H](CO)C(=O)N[C@H](C(=O)O)[C@@H](C)O)C(C)C [Example 41, N^ε24-[(4S)-4-carboxy-4-[[(4S)-4-carboxy-4-[[2-[2-[2-[[2-[2-[2-[[(4S)-4-carboxy-4-(17-carboxyheptadecanoylamino)butanoyl]amino]ethoxy]ethoxy]acetyl]amino]ethoxy]ethoxy]acetyl]amino]butanoyl]amino]butanoyl]-[Glu16,Lys24,Leu27,Ser28]-Glucagon] | 9.89 | 7.3
3 | CC[C@H](C)[C@H](NC(=O)[C@H](CC(=O)O)NC(=O)[C@H](CC(C)C)NC(=O)[C@H](Cc1ccc(O)cc1)NC(=O)[C@H](CCCCN)NC(=O)[C@H](CO)NC(=O)[C@H](Cc1ccc(O)cc1)NC(=O)[C@H](CC(=O)O)NC(=O)[C@H](CO)NC(=O)[C@@H](NC(=O)[C@H](Cc1ccccc1)NC(=O)[C@@H](NC(=O)CNC(=O)[C@H](CCC(N)=O)NC(=O)[C@H](CO)NC(=O)[C@@H](N)Cc1c[nH]cn1)[C@@H](C)O)[C@@H](C)O)C(=O)N[C@@H](CCCNC(=N)N)C(=O)N[C@@H](CCCNC(=N)N)C(=O)N[C@@H](C)C(=O)N[C@@H](CCC(N)=O)C(=O)N[C@@H](CC(=O)O)C(=O)N[C@@H](Cc1ccccc1)C(=O)N[C@H](C(=O)N[C@@H](CCCCNC(=O)CC[C@H](NC(=O)CC[C@H](NC(=O)COCCOCCNC(=O)COCCOCCNC(=O)CC[C@H](NC(=O)CCCCCCCCCCCCCCCCC(=O)O)C(=O)O)C(=O)O)C(=O)O)C(=O)N[C@@H](Cc1c[nH]c2ccccc12)C(=O)N[C@@H](CC(C)C)C(=O)N[C@@H](CC(C)C)C(=O)N[C@@H](CO)C(=O)N[C@H](C(=O)O)[C@@H](C)O)C(C)C [Example 11, N^ε24-[(4S)-4-carboxy-4-[[(4S)-4-carboxy-4-[[2-[2-[2-[[2-[2-[2-[[(4S)-4-carboxy-4-(17-carboxyheptadecanoylamino)butanoyl]amino]ethoxy]ethoxy]acetyl]amino]ethoxy]ethoxy]acetyl]amino]butanoyl]amino]butanoyl]-[Ile^16,Lys^24,Leu^27,Ser^28]-Glucagon] | 10.08 | 6.2
4 | CC(C)C[C@H](NC(=O)[C@H](CC(=O)O)NC(=O)[C@H](CC(C)C)NC(=O)[C@H](Cc1ccc(O)cc1)NC(=O)[C@H](CCCNC(=N)N)NC(=O)[C@H](CO)NC(=O)[C@H](Cc1ccc(O)cc1)NC(=O)[C@H](CC(=O)O)NC(=O)[C@H](CO)NC(=O)[C@@H](NC(=O)[C@H](Cc1ccccc1)NC(=O)[C@@H](NC(=O)CNC(=O)[C@H](CCC(N)=O)NC(=O)[C@H](CO)NC(=O)[C@@H](N)Cc1c[nH]cn1)[C@@H](C)O)[C@@H](C)O)C(=O)N[C@@H](CCCNC(=N)N)C(=O)N[C@@H](CCCNC(=N)N)C(=O)N[C@@H](C)C(=O)N[C@@H](CCC(N)=O)C(=O)N[C@@H](CC(=O)O)C(=O)N[C@@H](Cc1ccccc1)C(=O)N[C@H](C(=O)N[C@@H](CCCCNC(=O)CC[C@H](NC(=O)CC[C@H](NC(=O)COCCOCCNC(=O)COCCOCCNC(=O)CC[C@H](NC(=O)CCCCCCCCCCCCCCCCC(=O)O)C(=O)O)C(=O)O)C(=O)O)C(=O)N[C@@H](Cc1c[nH]c2ccccc12)C(=O)N[C@@H](CC(C)C)C(=O)N[C@@H](CC(C)C)C(=O)N[C@H](C(=O)N[C@H](C(=O)O)[C@@H](C)O)[C@@H](C)O)C(C)C [Example 19, N^ε24-[(4S)-4-carboxy-4-[[(4S)-4-carboxy-4-[[2-[2-[2-[[2-[2-[2-[[(4S)-4-carboxy-4-(17-carboxyheptadecanoylamino)butanoyl]amino]ethoxy]ethoxy]acetyl]amino]ethoxy]ethoxy]acetyl]amino]butanoyl]amino]butanoyl]-[Arg^12,Leu^16,Lys^24,Leu^27,Thr^28]-Glucagon] (H-HSQGTFTSDYSRYLDLRRAQDFVK([γGlu-γGlu-AEEA-AEEA-γGlu-C18 diacid])WLLTT-OH) | 9.12 | 4.3
5 | CC(C)C[C@H](NC(=O)[C@H](Cc1ccc(O)cc1)NC(=O)[C@H](CCCNC(=N)N)NC(=O)[C@H](CO)NC(=O)[C@H](Cc1ccc(O)cc1)NC(=O)[C@H](CC(=O)O)NC(=O)[C@H](CO)NC(=O)[C@@H](NC(=O)[C@H](Cc1ccccc1)NC(=O)[C@@H](NC(=O)CNC(=O)[C@H](CCC(N)=O)NC(=O)[C@H](CO)NC(=O)[C@@H](N)Cc1c[nH]cn1)[C@@H](C)O)[C@@H](C)O)C(=O)N[C@@H](CC(=O)O)C(=O)N[C@@H](C)C(=O)N[C@@H](CCCNC(=N)N)C(=O)N[C@@H](CCCNC(=N)N)C(=O)N[C@@H](C)C(=O)N[C@@H](CCC(N)=O)C(=O)N[C@@H](CC(=O)O)C(=O)N[C@@H](Cc1ccccc1)C(=O)N[C@H](C(=O)N[C@@H](CCCCNC(=O)CC[C@H](NC(=O)CC[C@H](NC(=O)CC[C@H](NC(=O)CC[C@H](NC(=O)CCCCCCCCCCCCCCCCC(=O)O)C(=O)O)C(=O)O)C(=O)O)C(=O)O)C(=O)N[C@@H](Cc1c[nH]c2ccccc12)C(=O)N[C@@H](CC(C)C)C(=O)N[C@@H](CC(C)C)C(=O)N[C@@H](CO)C(=O)N[C@H](C(=O)O)[C@@H](C)O)C(C)C [Example 96, N^ε24-[(4S)-4-carboxy-4-[[(4S)-4-carboxy-4-[[(4S)-4-carboxy-4-[[(4S)-4-carboxy-4-(17-carboxyheptadecanoylamino)butanoyl]amino]butanoyl]amino]butanoyl]amino]butanoyl]-[Arg12,Ala16,Lys24,Leu27,Ser28]-Glucagon] (H-HSQGTFTSDYSRYLDARRAQDFVK([γGlu-γGlu-γGlu-γGlu-C18 diacid])WLLST-OH; N-terminus and C-terminus assumed) | 10.21 | 4.5
6 | CC(C)C[C@H](NC(=O)[C@H](CC(C)C)NC(=O)[C@H](Cc1c[nH]c2ccccc12)NC(=O)[C@H](CCCCNC(=O)CC[C@H](NC(=O)CC[C@H](NC(=O)COCCOCCNC(=O)COCCOCCNC(=O)CC[C@H](NC(=O)CCCCCCCCCCCCCCC(=O)O)C(=O)O)C(=O)O)C(=O)O)NC(=O)[C@@H](NC(=O)[C@H](Cc1ccccc1)NC(=O)[C@H](CC(=O)O)NC(=O)[C@H](CCC(N)=O)NC(=O)[C@H](C)NC(=O)[C@H](CCCNC(=N)N)NC(=O)[C@H](CCCNC(=N)N)NC(=O)[C@H](CC(C)C)NC(=O)[C@H](CC(=O)O)NC(=O)[C@H](CC(C)C)NC(=O)[C@H](Cc1ccc(O)cc1)NC(=O)[C@H](CCCNC(=N)N)NC(=O)[C@H](CO)NC(=O)[C@H](Cc1ccc(O)cc1)NC(=O)[C@H](CC(=O)O)NC(=O)[C@H](CO)NC(=O)[C@@H](NC(=O)[C@H](Cc1ccccc1)NC(=O)[C@@H](NC(=O)CNC(=O)[C@H](CCC(N)=O)NC(=O)[C@H](CO)NC(=O)[C@@H](N)Cc1c[nH]cn1)[C@@H](C)O)[C@@H](C)O)C(C)C)C(=O)NCC(=O)N[C@H](C(=O)O)[C@@H](C)O [Example 90, N^ε24-[(4S)-4-carboxy-4-[[(4S)-4-carboxy-4-[[2-[2-[2-[[2-[2-[2-[[(4S)-4-carboxy-4-(15-carboxypentadecanoylamino)butanoyl]amino]ethoxy]ethoxy]acetyl]amino]ethoxy]ethoxy]acetyl]amino]butanoyl]amino]butanoyl]-[Arg12,Leu16,Lys24,Leu27,Gly28]-Glucagon] (H-HSQGTFTSDYSRYLDLRRAQDFVK([γGlu-γGlu-AEEA-AEEA-γGlu-C16 diacid])WLLGT-OH) | 10.05 | 5.4

— patent US9486506B2 (Novo Nordisk A/S, priority 2011, dated 2016)
